In patent publication US11427544B2, “Histone deacetylase 6 inhibitors and use thereof” (TAIPEI MEDICAL UNIVERSITY, priority 2016, dated 2022):
Counter-ions that a name gives are not always drawn.

Assays:
[1] = test system: MDA-MB-231 Breast cancer cell line; assay: Antiproliferative activity, MDA-MB-231; type: cell-based, human; settings: MDA-MB-231; mesylate
Experimental: (§1) A study was conducted to evaluate the inhibitory activity of compounds of Formula (I) in inhibiting HDAC6, antiproliferative activity of test compounds in suppressing cancer cell growth, and selectivity of inhibiting HDAC6 over other HDAC isoforms.
(§2) The study was performed according to the protocol reported in Hsieh et al., Cell Death and Disease, 2014, April; 5:e1166.
(§3) Shown in Table 2 below are antiproliferative activities (measured by their half maximal concentration for inhibiting cell growth, i.e., GI50) of the test compounds against various cancer cell lines.

[2] = test system: T98 Glioblastoma cell line; assay: Antiproliferative activity, T98; type: cell-based, human; settings: T98; mesylate
Experimental: as §1, §2, §3

[3] = target: T1, HDAC1 (Homo sapiens, UniProt Q13547); assay: Fluorogenic HDAC assay, HDAC1; type: biochemical; settings: recombinant HDAC1; read-out: Enzyme IC50 HDAC1
T1 construct: purchased BPS Bioscience Corp
Description: (§4) Of note, there are eighteen human HDACs. Eleven of them, designated as HDAC1-11, are zinc-dependent. Seven of them, designated as Sirt1-7, are NAD+-dependent.
(§5) Fluorogenic HDAC assay kits were used to assess the ability of HDAC inhibitors to inhibit deacetylation of lysine residues on a substrate by recombinant proteins HDAC1, 3, 4, 5, 6, 7, 8, 9 and Sirt1 according to the manufacturer's instructions (BPS Bioscience Corp., San Diego, Calif., USA).

[4] = target: T2, HDAC6 (Homo sapiens, UniProt Q9UBN7); assay: Fluorogenic HDAC assay, HDAC6; type: biochemical
T2 construct: purchased BPS Bioscience Corp
T2 sequence (Q9UBN7 1-1215): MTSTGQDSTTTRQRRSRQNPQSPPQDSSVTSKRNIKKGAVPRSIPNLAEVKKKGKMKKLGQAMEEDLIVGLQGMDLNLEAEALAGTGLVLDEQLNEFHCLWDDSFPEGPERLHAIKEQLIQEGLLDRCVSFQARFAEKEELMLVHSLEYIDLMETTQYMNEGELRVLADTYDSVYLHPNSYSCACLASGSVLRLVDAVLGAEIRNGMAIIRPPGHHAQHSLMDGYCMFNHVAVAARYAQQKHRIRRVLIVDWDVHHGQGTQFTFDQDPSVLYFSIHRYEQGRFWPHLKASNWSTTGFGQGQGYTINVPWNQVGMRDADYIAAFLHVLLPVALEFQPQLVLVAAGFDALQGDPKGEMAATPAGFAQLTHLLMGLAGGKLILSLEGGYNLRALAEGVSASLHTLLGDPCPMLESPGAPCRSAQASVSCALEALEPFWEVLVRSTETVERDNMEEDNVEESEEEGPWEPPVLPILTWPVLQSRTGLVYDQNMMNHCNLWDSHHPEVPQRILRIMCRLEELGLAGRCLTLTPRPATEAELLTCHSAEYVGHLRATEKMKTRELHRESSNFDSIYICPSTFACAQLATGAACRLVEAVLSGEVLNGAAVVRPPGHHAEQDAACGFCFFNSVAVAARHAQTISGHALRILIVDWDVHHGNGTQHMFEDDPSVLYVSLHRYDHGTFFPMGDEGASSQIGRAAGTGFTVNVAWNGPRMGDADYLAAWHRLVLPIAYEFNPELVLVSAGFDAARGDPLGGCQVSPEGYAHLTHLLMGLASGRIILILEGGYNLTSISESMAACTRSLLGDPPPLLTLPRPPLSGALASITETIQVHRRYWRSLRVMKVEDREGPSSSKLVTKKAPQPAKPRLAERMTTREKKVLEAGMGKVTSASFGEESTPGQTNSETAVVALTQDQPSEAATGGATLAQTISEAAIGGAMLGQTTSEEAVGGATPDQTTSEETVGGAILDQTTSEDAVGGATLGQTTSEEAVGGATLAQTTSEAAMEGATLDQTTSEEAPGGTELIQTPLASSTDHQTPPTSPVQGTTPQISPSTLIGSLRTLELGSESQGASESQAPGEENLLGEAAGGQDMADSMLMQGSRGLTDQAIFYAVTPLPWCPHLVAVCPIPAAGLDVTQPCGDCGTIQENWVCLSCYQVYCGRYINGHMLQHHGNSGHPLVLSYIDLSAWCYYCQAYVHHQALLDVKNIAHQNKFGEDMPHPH
Description: as §4, §5

[5] = test system: PC-3 prostate cancer cell line; assay: Antiproliferative activity, PC-3; type: cell-based, human; settings: Homo sapiens
Experimental: as §1, §2, §3

[6] = test system: A549 lung cancer cell line; assay: Antiproliferative activity, A549; type: cell-based, human; settings: Homo sapiens
Experimental: as §1, §2, §3

[7] = test system: APP in pCAX APP 695 plasmid-transfected Neuro 2a cells; assay: Amyloid precursor protein (APP) levels, Western blot; type: cell-based; settings: pCAX APP 695 transfected neuro 2a cells; 0.1-10 μM, 24 hours
Experimental: (§6) A study was conducted to evaluate the effect of compounds of Formula (I) in amyloid precursor protein (APP) levels and Aβ42 production.
Neuro 2a cells (1×10^6) in 6-well plates were transfected with pCAX APP 695 plasmid for 24 hours, then incubated for another 24 hours with Compound 12, Compound 28, or tubasatin A (0.1-10 μM). Cells were then harvested and cell lysates were prepared for Western blot analysis of the APP proteins.

[8] = test system: Aβ42 production in pCAX APP 695 plasmid-transfected Neuro 2a and SH—SYSY cells; assay: Aβ42 production in cell culture supernatants; type: cell-based; settings: pCAX APP 695 transfected Neuro 2a and SH—SYSY cells; 0.1-10 μM, 24 hours
Experimental: as §6
Moreover, neuro 2a or SH—SYSY cells (1×10^5) were transfected with pCAX APP 695 plasmid for 24 hours, followed by incubation with Compound 12 or Compound 28 (0.1-10 μM) for another 24 hours. Cell culture supernatants were assayed for Aβ42 production.

[9] = test system: HL-60 Acute promyelocytic leukemia; assay: Tumor growth inhibition, HL-60 xenograft; type: in vivo, athymic nude mice; settings: 50 mg/kg, qd, intraperitoneal
Experimental: (§7) An in vivo study was conducted to evaluate the efficacy of compounds of Formula (I) in suppressing tumor growth in multiple human cancer types.
(§8) Eight-week-old athymic nude mice were group-housed under conditions of constant photoperiod (12 h light/12 h dark at 21-23° C. and 60-85% humidity) with ad libitum access to sterilized food and water. All animal experiments followed ethical standards, and protocols were reviewed and approved by the Animal Use and Management Committee of National Taiwan University. Each mouse was inoculated subcutaneously with 1×10^6˜1×10^7 human cancer cells in a total volume of 0.1 mL serum-free medium containing 50% Matrigel (BD Biosciences). As tumors became established (˜100 mm^3), mice were randomized to various groups to be treated with pre-determined materials (n=6-8/group): (i) control group: 0.5% DMSO/0.5% Cremophor/90% D5W and (ii) treatment groups: Compounds 12 and 28 at pre-determined doses daily. Mice received treatment by intraperitoneal injection for the duration of the study. Tumors were measured weekly using calipers. Tumor size, in mm^3, was calculated according to the formula: Tumor volume=(w^2×l)/2, where w and 1 respectively represent the width and length (both in mm) of the tumor.

[10] = test system: BJAB Burkitt lymphoma-derived B-cell; assay: Tumor growth inhibition, BJAB xenograft; type: in vivo, athymic nude mice; settings: 50 mg/kg, qd, intraperitoneal
Experimental: as §7, §8

[11] = Safety in ICR mice, 7-day intraperitoneal dosing; type: in vivo; settings: 50, 100, and 200 mg/kg intraperitoneally once a day for 7 days, monitored another 7 days
Experimental: In addition, both Compounds 12 and 28 were studied to evaluate their safety in animals.
[…]. The animals were dosed intraperitoneally once a day for 7 days and then monitored for another 7 days. The animals were weighed daily for 1 week and then twice weekly.

[12] = test system: scopolamine-induced memory deficit; assay: Water maze test, scopolamine-treated rats; type: in vivo; settings: gavage twice daily for seven days; scopolamine 1.5 mg/kg i.p.
Experimental: An in vivo study was conducted to evaluate the efficacy of compounds of Formula (I) in improving memory deficits associated with Alzheimer's disease.
(§9) Compound 12, Compound 28, suberanilohydroxamic acid (50 mg/kg) or vehicle was given to rats by gavage twice daily for seven days prior to behavioral experiments. On the day conducting a behavior assessment, rats in all groups except the control group were administered scopolamine (1.5 mg/kg) by intraperitoneal injection for 30 minutes before the assessment, then a water maze test or an elevated plus maze test was performed.

[13] = test system: scopolamine-induced memory deficit; assay: Elevated plus maze test, scopolamine-treated rats; type: in vivo; settings: gavage twice daily for seven days; scopolamine 1.5 mg/kg i.p.
Experimental: as §9, with “An in vivo study was conducted to evaluate the efficacy of compounds of Formula (I) in improving memory deficits associated with Alzheimer's disease. Compound 12,” for “Compound 12,”, “was performed. […] The significant reduction in transfer latency time indicated improvement in memory.” for “was performed.”

T1 sequence (Q13547 whole entry): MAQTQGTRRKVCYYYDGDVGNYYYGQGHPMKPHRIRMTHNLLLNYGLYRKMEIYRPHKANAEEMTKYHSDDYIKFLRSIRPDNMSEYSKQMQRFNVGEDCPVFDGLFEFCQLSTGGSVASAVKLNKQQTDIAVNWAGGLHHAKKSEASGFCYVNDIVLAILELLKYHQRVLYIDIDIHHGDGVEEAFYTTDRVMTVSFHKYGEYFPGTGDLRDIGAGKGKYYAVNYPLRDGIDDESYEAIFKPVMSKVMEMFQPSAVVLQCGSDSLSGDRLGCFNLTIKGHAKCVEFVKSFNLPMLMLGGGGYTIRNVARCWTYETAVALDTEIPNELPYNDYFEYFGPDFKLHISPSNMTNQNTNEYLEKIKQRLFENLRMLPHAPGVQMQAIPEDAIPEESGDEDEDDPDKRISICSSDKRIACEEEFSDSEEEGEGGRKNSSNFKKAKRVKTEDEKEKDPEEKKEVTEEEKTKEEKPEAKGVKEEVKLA

Row | Structure (SMILES) | GI50 [1] [nM] | GI50 [2] [nM] | IC50 [3] [nM] | IC50 [4] [nM] | GI50 [5] [nM] | GI50 [6] [nM] | APP expression [7] | Aβ42 production [8] | % TGI [9] [%] | % TGI [10] [%] | tolerability [11] | time spent in the correct quadrant (water maze) [12] | transfer latency time (elevated plus maze) [13]
1 | O=C(NO)c1ccc(CNc2cccc3cccnc23)cc1 [Compound 28-mesylate, N-Hydroxy-4-(quinolin-8-ylaminomethyl)-benzamide mesylate] | 1360 ± 250 | 10800 ± 830 |  |  |  |  |  |  |  |  |  |  | 
2 | O=C(NO)c1ccc(CNc2cccc3ncccc23)cc1 [Compound 12, N-hydroxy-4-((quinolin-5-ylamino)methyl)benzamide] |  |  | 2650 | 2.73 | 3280 ± 110 | 5530 ± 240 | markedly reduced the APP expression | decreased Aβ42 production | 72.2 | 64.5 | well tolerated | markedly reverse this effect | significantly rescued scopolamine-mediated increase of transfer latency time
